Experiments:
Cyclooxigenase COX-2 = target: T1, Cyclooxigenase COX-2 (Homo sapiens, UniProt P35354); assay: Cerep SafetyScreen-87; assay type: biochemical; conditions: n=2
T1 construct: purchased Eurofins Cerep/Panlabs SafetyScreen-87

[1] = target: T2, Transporter, Serotonin (5-Hydroxytryptamine) (SERT) (Homo sapiens, UniProt P31645); assay: Cerep SafetyScreen-87; assay type: binding; conditions: n=2
T2 construct: purchased Eurofins Cerep/Panlabs SafetyScreen-87

[2] = target: T3, Cholecystokinin CCK1 (CCKA) (Homo sapiens, UniProt P32238); assay: Cerep SafetyScreen-87; assay type: binding; conditions: n=2
T3 construct: purchased Eurofins Cerep/Panlabs SafetyScreen-87

Dopamine D2L = target: T4, Dopamine D2L (Homo sapiens, UniProt P14416); assay: Cerep SafetyScreen-87; assay type: binding; conditions: n=2
T4 construct: purchased Eurofins Cerep/Panlabs SafetyScreen-87

[3] = target: T5, Serotonin (5-Hydroxytryptamine) 5-HT2A (Homo sapiens, UniProt P28223); assay: Cerep SafetyScreen-87; assay type: binding; conditions: n=2
T5 construct: purchased Eurofins Cerep/Panlabs SafetyScreen-87

Chemokine CCR1 = target: T6, Chemokine CCR1 (Homo sapiens, UniProt P32246); assay: Cerep SafetyScreen-87; assay type: binding; conditions: n=2
T6 construct: purchased Eurofins Cerep/Panlabs SafetyScreen-87
T6 sequence (P32246 whole entry): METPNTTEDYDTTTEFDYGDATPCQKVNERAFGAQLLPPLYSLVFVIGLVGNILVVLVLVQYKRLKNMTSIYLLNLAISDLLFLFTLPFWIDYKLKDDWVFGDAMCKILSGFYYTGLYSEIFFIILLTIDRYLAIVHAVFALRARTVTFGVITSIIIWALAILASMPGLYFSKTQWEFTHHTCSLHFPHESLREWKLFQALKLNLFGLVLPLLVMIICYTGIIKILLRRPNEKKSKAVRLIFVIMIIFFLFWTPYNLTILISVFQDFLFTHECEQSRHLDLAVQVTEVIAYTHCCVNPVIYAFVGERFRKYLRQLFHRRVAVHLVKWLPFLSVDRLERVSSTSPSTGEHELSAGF

Monoamine Oxidase MAO-B = target: T7, Monoamine Oxidase MAO-B (Homo sapiens, UniProt P27338); assay: Cerep SafetyScreen-87; assay type: biochemical; conditions: n=2
T7 construct: purchased Eurofins Cerep/Panlabs SafetyScreen-87

Cyclooxigenase COX-1 = target: T8, Cyclooxigenase COX-1 (Homo sapiens, UniProt P23219); assay: Cerep SafetyScreen-87; assay type: biochemical; conditions: n=2
T8 construct: purchased Eurofins Cerep/Panlabs SafetyScreen-87

Adrenergic β1 = target: T9, Adrenergic β1 (Homo sapiens, UniProt P08588); assay: Cerep SafetyScreen-87; assay type: binding; conditions: n=2
T9 construct: purchased Eurofins Cerep/Panlabs SafetyScreen-87
T9 sequence (P08588 whole entry): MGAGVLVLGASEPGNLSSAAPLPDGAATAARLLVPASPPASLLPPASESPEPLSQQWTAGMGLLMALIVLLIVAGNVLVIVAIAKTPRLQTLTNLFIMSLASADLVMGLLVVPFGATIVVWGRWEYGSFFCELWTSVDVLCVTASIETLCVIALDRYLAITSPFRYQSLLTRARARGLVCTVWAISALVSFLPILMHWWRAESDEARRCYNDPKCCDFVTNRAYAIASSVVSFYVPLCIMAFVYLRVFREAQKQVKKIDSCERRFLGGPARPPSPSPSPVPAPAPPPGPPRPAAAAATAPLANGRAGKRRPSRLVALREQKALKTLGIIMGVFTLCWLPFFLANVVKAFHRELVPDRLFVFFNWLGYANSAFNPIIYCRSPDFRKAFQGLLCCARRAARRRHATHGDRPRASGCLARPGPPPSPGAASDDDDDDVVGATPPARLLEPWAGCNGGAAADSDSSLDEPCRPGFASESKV

Chemokine CXCR2 (IL-8RB) = target: T10, Chemokine CXCR2 (IL-8RB) (Homo sapiens, UniProt P25025); assay: Cerep SafetyScreen-87; assay type: binding; conditions: n=2
T10 construct: purchased Eurofins Cerep/Panlabs SafetyScreen-87

Muscarinic M2 = target: T11, Muscarinic M2 (Homo sapiens, UniProt P08172); assay: Cerep SafetyScreen-87; assay type: binding; conditions: n=2
T11 construct: purchased Eurofins Cerep/Panlabs SafetyScreen-87

Melanocortin MC1 = target: T12, Melanocortin MC1 (Homo sapiens, UniProt Q01726); assay: Cerep SafetyScreen-87; assay type: binding; conditions: n=2
T12 construct: purchased Eurofins Cerep/Panlabs SafetyScreen-87

Progesterone PR-B = target: T13, Progesterone PR-B (Homo sapiens, UniProt P06401); assay: Cerep SafetyScreen-87; assay type: binding; conditions: n=2
T13 construct: purchased Eurofins Cerep/Panlabs SafetyScreen-87
T13 sequence (P06401 whole entry): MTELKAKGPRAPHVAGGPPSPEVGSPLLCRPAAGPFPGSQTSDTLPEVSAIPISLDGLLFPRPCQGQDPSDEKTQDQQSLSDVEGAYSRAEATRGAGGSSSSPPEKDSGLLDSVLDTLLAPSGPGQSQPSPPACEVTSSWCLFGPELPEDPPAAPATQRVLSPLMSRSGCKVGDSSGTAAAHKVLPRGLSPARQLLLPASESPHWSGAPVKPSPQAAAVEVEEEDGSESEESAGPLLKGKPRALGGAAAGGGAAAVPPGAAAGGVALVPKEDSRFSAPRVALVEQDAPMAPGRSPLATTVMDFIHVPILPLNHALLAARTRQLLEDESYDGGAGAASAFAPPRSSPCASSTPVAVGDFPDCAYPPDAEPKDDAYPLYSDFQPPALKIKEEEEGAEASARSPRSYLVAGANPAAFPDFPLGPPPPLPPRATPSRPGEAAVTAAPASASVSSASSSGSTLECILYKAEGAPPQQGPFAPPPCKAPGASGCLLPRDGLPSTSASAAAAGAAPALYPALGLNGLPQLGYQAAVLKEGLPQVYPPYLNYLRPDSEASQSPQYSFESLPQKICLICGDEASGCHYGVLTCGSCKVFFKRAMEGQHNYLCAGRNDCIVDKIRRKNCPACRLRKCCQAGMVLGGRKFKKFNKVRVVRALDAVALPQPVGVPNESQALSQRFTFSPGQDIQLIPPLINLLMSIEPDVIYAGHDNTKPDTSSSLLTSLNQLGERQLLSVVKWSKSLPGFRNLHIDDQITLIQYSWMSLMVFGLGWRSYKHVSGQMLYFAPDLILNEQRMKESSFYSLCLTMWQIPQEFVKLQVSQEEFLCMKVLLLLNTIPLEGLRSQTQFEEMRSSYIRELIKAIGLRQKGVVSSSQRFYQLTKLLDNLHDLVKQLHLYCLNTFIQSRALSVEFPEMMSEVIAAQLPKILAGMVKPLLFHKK

[4] = target: T14, Cholinesterase, Acetyl, ACES (Homo sapiens, UniProt P22303); assay: Cerep SafetyScreen-87; assay type: biochemical; conditions: n=2
T14 construct: purchased Eurofins Cerep/Panlabs SafetyScreen-87

Opiate µ (OP3, MOP) = target: T15, Opiate µ (OP3, MOP) (Homo sapiens, UniProt P35372); assay: Cerep SafetyScreen-87; assay type: binding; conditions: n=2
T15 construct: purchased Eurofins Cerep/Panlabs SafetyScreen-87

Adrenergic α1A = target: T16, Adrenergic α1A (Rattus norvegicus, UniProt P43140); assay: Cerep SafetyScreen-87; assay type: binding; conditions: n=2
T16 construct: purchased Eurofins Cerep/Panlabs SafetyScreen-87

[5] = target: T17, Serotonin (5-Hydroxytryptamine) 5-HT1A (Homo sapiens, UniProt P08908); assay: Cerep SafetyScreen-87; assay type: binding; conditions: n=2
T17 construct: purchased Eurofins Cerep/Panlabs SafetyScreen-87
T17 sequence (P08908 whole entry): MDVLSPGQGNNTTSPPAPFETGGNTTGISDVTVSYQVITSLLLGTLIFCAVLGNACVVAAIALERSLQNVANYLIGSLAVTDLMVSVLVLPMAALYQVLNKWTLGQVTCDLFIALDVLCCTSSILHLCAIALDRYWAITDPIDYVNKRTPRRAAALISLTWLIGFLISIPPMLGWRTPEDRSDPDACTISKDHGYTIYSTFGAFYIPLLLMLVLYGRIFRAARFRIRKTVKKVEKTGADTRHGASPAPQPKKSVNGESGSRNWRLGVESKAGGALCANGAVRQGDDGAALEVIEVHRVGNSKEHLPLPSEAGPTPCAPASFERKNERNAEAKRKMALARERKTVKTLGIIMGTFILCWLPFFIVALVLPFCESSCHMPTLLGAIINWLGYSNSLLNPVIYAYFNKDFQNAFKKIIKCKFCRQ

Angiotensin AT1 = target: T18, Angiotensin AT1 (Homo sapiens, UniProt P30556); assay: Cerep SafetyScreen-87; assay type: binding; conditions: n=2
T18 construct: purchased Eurofins Cerep/Panlabs SafetyScreen-87

[6] = target: T19, Protein Tyrosine Kinase, Insulin Receptor (Homo sapiens, UniProt P06213); assay: Cerep SafetyScreen-87; assay type: biochemical; conditions: n=2
T19 construct: purchased Eurofins Cerep/Panlabs SafetyScreen-87

Glutamate, NMDA, Glycine = Glutamate, NMDA, Glycine (Rattus norvegicus, UniProt P35439); assay: Cerep SafetyScreen-87; assay type: binding; conditions: n=2
Glucocorticoid = target: T20, Glucocorticoid (Homo sapiens, UniProt P04150); assay: Cerep SafetyScreen-87; assay type: binding; conditions: n=2
T20 construct: purchased Eurofins Cerep/Panlabs SafetyScreen-87

Opiate δ1 (OP1, DOP) = target: T21, Opiate δ1 (OP1, DOP) (Homo sapiens, UniProt P41143); assay: Cerep SafetyScreen-87; assay type: binding; conditions: n=2
T21 construct: purchased Eurofins Cerep/Panlabs SafetyScreen-87

[7] = target: T22, Serotonin (5-Hydroxytryptamine) 5-HT3 (Homo sapiens, UniProt P46098); assay: Cerep SafetyScreen-87; assay type: binding; conditions: n=2
T22 construct: purchased Eurofins Cerep/Panlabs SafetyScreen-87

[8] = target: T23, Serotonin (5-Hydroxytryptamine) 5-HT1B (Homo sapiens, UniProt P28222); assay: Cerep SafetyScreen-87; assay type: binding; conditions: n=2
T23 construct: purchased Eurofins Cerep/Panlabs SafetyScreen-87

Endothelin ETA = target: T24, Endothelin ETA (Homo sapiens, UniProt P25101); assay: Cerep SafetyScreen-87; assay type: binding; conditions: n=2
T24 construct: purchased Eurofins Cerep/Panlabs SafetyScreen-87

Monoamine Oxidase MAO-A = target: T25, Monoamine Oxidase MAO-A (Homo sapiens, UniProt P21397); assay: Cerep SafetyScreen-87; assay type: biochemical; conditions: n=2
T25 construct: purchased Eurofins Cerep/Panlabs SafetyScreen-87

Adrenergic β2 = target: T26, Adrenergic β2 (Homo sapiens, UniProt P07550); assay: Cerep SafetyScreen-87; assay type: binding; conditions: n=2
T26 construct: purchased Eurofins Cerep/Panlabs SafetyScreen-87

[9] = target: T27, Peptidase, CTSG (Cathepsin G) (Homo sapiens, UniProt P08311); assay: Cerep SafetyScreen-87; assay type: biochemical; conditions: n=2
T27 construct: purchased Eurofins Cerep/Panlabs SafetyScreen-87
T27 sequence (P08311 21-255): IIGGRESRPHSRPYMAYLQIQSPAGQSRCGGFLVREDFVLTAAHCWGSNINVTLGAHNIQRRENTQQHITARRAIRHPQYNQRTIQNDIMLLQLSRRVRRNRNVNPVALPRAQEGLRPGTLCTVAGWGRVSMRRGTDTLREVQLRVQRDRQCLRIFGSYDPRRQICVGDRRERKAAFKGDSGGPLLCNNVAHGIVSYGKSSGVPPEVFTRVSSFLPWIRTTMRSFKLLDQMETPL

Adenosine A1 = target: T28, Adenosine A1 (Homo sapiens, UniProt P30542); assay: Cerep SafetyScreen-87; assay type: binding; conditions: n=2
T28 construct: purchased Eurofins Cerep/Panlabs SafetyScreen-87

Tachykinin NK1 = target: T29, Tachykinin NK1 (Homo sapiens, UniProt P25103); assay: Cerep SafetyScreen-87; assay type: binding; conditions: n=2
T29 construct: purchased Eurofins Cerep/Panlabs SafetyScreen-87

[10] = target: T30, Peptidase, Angiotensin Converting Enzyme (Oryctolagus cuniculus, UniProt P12822); assay: Cerep SafetyScreen-87; assay type: biochemical, rabbit; conditions: n=2
T30 construct: purchased Eurofins Cerep/Panlabs SafetyScreen-87

Dopamine D1 = target: T31, Dopamine D1 (Homo sapiens, UniProt P21728); assay: Cerep SafetyScreen-87; assay type: binding; conditions: n=2
T31 construct: purchased Eurofins Cerep/Panlabs SafetyScreen-87

Cannabinoid CB1 = target: T32, Cannabinoid CB1 (Homo sapiens, UniProt P21554); assay: Cerep SafetyScreen-87; assay type: binding; conditions: n=2
T32 construct: purchased Eurofins Cerep/Panlabs SafetyScreen-87

Adrenergic α2B = target: T33, Adrenergic α2B (Homo sapiens, UniProt P18089); assay: Cerep SafetyScreen-87; assay type: binding; conditions: n=2
T33 construct: purchased Eurofins Cerep/Panlabs SafetyScreen-87

Adenosine A2A = Adenosine A2A (Homo sapiens, UniProt P29274); assay type: cell-based; design: Cerep (contract assay) test=2527; conditions: functional assay, antagonist mode; read-out: adenosine A2A antagonism IC50
Adenosine A2A, sequence (P29274 whole entry): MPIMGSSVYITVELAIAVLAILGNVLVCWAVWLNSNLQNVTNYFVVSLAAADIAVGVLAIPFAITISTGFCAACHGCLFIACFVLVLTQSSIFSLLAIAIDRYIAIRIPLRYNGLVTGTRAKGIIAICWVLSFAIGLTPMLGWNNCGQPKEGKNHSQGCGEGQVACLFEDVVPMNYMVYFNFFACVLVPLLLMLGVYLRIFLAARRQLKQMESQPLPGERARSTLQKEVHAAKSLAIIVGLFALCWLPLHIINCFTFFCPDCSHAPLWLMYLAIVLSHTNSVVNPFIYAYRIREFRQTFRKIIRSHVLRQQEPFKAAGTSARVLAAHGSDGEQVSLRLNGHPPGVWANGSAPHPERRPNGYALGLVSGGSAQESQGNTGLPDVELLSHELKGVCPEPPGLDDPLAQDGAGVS

Estrogen ERα = target: T34, Estrogen ERα (Homo sapiens, UniProt P03372); assay: Cerep SafetyScreen-87; assay type: binding; conditions: n=2
T34 construct: purchased Eurofins Cerep/Panlabs SafetyScreen-87
T34 sequence (P03372 whole entry, looked up): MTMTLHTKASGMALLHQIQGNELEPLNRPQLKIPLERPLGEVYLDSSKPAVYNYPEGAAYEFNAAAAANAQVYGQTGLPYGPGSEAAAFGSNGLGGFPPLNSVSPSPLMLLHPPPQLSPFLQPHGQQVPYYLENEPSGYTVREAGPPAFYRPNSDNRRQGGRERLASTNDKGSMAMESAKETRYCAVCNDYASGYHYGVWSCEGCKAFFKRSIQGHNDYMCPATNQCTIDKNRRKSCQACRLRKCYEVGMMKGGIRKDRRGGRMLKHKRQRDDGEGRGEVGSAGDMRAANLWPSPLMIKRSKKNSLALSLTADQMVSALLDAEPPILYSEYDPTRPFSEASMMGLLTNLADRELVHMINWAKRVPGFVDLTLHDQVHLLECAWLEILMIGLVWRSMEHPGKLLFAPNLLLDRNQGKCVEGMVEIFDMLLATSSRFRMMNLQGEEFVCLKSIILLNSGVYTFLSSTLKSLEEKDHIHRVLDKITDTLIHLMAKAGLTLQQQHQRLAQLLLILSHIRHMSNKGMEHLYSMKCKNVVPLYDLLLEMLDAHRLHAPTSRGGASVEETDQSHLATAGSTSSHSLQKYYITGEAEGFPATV

Calcium Channel N-type = target: T35, Calcium Channel N-type (Rattus norvegicus, UniProt Q02294); assay: Cerep SafetyScreen-87; assay type: binding; conditions: n=2
T35 construct: purchased Eurofins Cerep/Panlabs SafetyScreen-87

Muscarinic M1 = target: T36, Muscarinic M1 (Homo sapiens, UniProt P11229); assay: Cerep SafetyScreen-87; assay type: binding; conditions: n=2
T36 construct: purchased Eurofins Cerep/Panlabs SafetyScreen-87

Bradykinin B2 = target: T37, Bradykinin B2 (Homo sapiens, UniProt P30411); assay: Cerep SafetyScreen-87; assay type: binding; conditions: n=2
T37 construct: purchased Eurofins Cerep/Panlabs SafetyScreen-87
T37 sequence (P30411 whole entry): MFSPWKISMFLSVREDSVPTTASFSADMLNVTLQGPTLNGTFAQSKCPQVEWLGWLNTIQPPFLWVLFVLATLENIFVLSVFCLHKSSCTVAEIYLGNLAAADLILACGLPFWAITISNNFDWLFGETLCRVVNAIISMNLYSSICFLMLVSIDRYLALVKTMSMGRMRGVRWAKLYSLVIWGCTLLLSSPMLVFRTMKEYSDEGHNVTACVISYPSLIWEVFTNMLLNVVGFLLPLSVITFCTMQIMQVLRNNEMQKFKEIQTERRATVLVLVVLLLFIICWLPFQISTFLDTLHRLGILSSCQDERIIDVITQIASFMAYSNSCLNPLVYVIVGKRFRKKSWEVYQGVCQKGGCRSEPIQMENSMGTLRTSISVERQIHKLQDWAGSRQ

Cannabinoid CB2 = target: T38, Cannabinoid CB2 (Homo sapiens, UniProt P34972); assay: Cerep SafetyScreen-87; assay type: binding; conditions: n=2
T38 construct: purchased Eurofins Cerep/Panlabs SafetyScreen-87

[11] = target: T39, Protein Tyrosine Kinase, LCK (Homo sapiens, UniProt P06239); assay: Cerep SafetyScreen-87; assay type: biochemical; conditions: n=2
T39 construct: purchased Eurofins Cerep/Panlabs SafetyScreen-87
T39 sequence (P06239 whole entry): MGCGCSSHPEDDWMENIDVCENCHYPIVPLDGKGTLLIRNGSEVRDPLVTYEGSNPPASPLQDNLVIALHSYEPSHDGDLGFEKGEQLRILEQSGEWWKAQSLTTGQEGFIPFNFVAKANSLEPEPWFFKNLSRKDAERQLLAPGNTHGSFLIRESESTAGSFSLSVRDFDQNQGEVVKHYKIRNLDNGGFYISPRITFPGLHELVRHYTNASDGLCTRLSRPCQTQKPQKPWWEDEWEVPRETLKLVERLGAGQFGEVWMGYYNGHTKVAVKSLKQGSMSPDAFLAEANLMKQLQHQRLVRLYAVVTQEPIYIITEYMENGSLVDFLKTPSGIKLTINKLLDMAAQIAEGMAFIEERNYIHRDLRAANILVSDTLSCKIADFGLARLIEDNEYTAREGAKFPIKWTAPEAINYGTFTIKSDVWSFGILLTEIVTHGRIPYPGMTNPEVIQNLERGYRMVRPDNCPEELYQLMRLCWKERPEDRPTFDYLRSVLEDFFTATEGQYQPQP

T2 sequence (P31645 whole entry): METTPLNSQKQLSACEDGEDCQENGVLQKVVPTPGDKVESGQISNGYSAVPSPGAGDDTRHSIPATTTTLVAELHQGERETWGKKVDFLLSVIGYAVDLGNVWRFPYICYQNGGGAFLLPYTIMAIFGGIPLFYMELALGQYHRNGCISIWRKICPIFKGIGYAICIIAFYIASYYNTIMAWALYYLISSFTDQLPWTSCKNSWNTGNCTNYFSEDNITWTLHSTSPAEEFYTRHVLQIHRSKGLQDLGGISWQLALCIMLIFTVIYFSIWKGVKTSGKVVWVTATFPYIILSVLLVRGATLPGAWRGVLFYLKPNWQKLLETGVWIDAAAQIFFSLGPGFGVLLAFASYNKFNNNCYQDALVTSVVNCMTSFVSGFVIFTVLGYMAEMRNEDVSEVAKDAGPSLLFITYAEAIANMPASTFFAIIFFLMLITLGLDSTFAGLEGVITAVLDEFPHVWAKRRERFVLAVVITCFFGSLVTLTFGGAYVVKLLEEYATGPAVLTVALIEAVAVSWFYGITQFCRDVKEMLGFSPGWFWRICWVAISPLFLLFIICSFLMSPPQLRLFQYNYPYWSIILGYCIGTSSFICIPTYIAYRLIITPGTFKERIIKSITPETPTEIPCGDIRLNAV

CCN1CCN(Cc2ccc3cc(C(=O)Nc4cc(NC(=O)c5ccc6c(c5)OCCO6)ccc4F)ccc3n2)CC1 [Compound 22, N-(5-(2,3-Dihydrobenzo[b][1,4]dioxine-6-carboxamido)-2-fluorophenyl)-2-((4-ethylpiperazin-1-yl)methyl)quinoline-6-carboxamide]
inhibition at 10 µM (Cyclooxigenase COX-2): -5%
inhibition at 10 µM [1]: 25%
inhibition at 10 µM [2]: 9%
inhibition at 10 µM (Dopamine D2L): 20%
inhibition at 10 µM [3]: 64%
inhibition at 10 µM (Chemokine CCR1): 2%
inhibition at 10 µM (Monoamine Oxidase MAO-B): 36%
inhibition at 10 µM (Cyclooxigenase COX-1): -24%
inhibition at 10 µM (Adrenergic β1): 4%
inhibition at 10 µM (Chemokine CXCR2 (IL-8RB)): 7%
inhibition at 10 µM (Muscarinic M2): 52%
inhibition at 10 µM (Melanocortin MC1): -3%
inhibition at 10 µM (Progesterone PR-B): 5%
inhibition at 10 µM [4]: 2%
inhibition at 10 µM (Opiate µ (OP3, MOP)): 44%
inhibition at 10 µM (Adrenergic α1A): 38%
inhibition at 10 µM [5]: 4%
inhibition at 10 µM (Angiotensin AT1): 1%
inhibition at 10 µM [6]: -7%
inhibition at 10 µM (Glutamate, NMDA, Glycine): -24%
inhibition at 10 µM (Glucocorticoid): 9%
inhibition at 10 µM (Opiate δ1 (OP1, DOP)): 9%
inhibition at 10 µM [7]: -10%
inhibition at 10 µM [8]: 43%
inhibition at 10 µM (Endothelin ETA): -2%
inhibition at 10 µM (Monoamine Oxidase MAO-A): 77%
inhibition at 10 µM (Adrenergic β2): 12%
inhibition at 10 µM [9]: 1%
inhibition at 10 µM (Adenosine A1): 11%
inhibition at 10 µM (Tachykinin NK1): 14%
inhibition at 10 µM [10]: 13%
inhibition at 10 µM (Dopamine D1): 41%
inhibition at 10 µM (Cannabinoid CB1): 9%
inhibition at 10 µM (Adrenergic α2B): 79%
IC50 (Adenosine A2A): 2000 nM
inhibition at 10 µM (Estrogen ERα): -1%
inhibition at 10 µM (Calcium Channel N-type): 9%
inhibition at 10 µM (Muscarinic M1): 43%
inhibition at 10 µM (Bradykinin B2): 0%
inhibition at 10 µM (Cannabinoid CB2): 79%
inhibition at 10 µM [11]: -8%

From publication PMC10150365 (Journal of Medicinal Chemistry, 2023)
